Reference: paper PMC3723632, “A Multi-targeted Drug Candidate with Dual Anti-HIV and Anti-HSV Activity” (PLoS Pathogens, 2013)
Converted amounts (≈) assume the structure as drawn. Like-named read-outs stand apart in the source and are kept apart here.

Key:
[1] = tested on: HIV-1(IIIB); assay: Anti-HIV-1 activity in CD4+ T-lymphocyte CEM cell cultures; assay type: cell-based; conditions: Human immunodeficiency virus 1, CCRF-CEM, virus-induced cytopathicity
Description: (§1) Human CD4 ^+ T-lymphocyte CEM cell cultures were inoculated with HIV-1 and HIV-2 and exposed to adefovir, tenofovir, or PMEO-DAPym. […]

[2] = tested on: HIV-2(ROD); assay: Anti-HIV-2 activity in CD4+ T-lymphocyte CEM cell cultures; assay type: cell-based; conditions: Human immunodeficiency virus 2, CCRF-CEM; HIV-2(ROD), CEM, virus-induced cytopathicity; read-out: EC50
Description: as §1

[3] = tested on: HSV-2 (G); assay: HSV-2 infection of primary monocyte/macrophage (M/M) cultures; assay type: cell-based
Experimental: We obtained human PBMC from the blood of healthy seronegative donors using Ficoll–Hypaque density gradient centrifugation. The PBMC were resuspended in RPMI 1640 medium supplemented with 20% heat-inactivated serum and then seeded into 48-well plates (1.8×10^6 cells/well). M/M were separated by adherence onto plastic. After 5 days, non-adherent cells were carefully removed by repeated gentle washings with warm medium, and adherent M/M were cultured for an additional 3 days to mature and to form a monolayer. M/M were estimated to be 10^5 cells/well at the time of infection. […]. Similarly, macrophage cultures were treated with the same concentrations of adefovir and tenofovir. Macrophage cultures were then infected with HSV-2 (G) (100 TCID50) in the presence of the compounds. After 2 h of adsorption, the cultures were extensively washed to remove any residual virus particles. Fresh complete medium and compounds, at the established concentrations, were then added to the cultures. Appropriate positive (infected but not treated) and mock-infected negative (uninfected and untreated) M/M controls were run for each experiment as well. All assays were performed in triplicate. […] We determined the amount of infectious virus in the supernatants 5–6 days after infection using the cytopathic effect assay. Tenfold serially diluted supernatants were added to confluent monolayers of Vero cells in 96-well plates (100 µl/well, 6 parallel wells). […] The titers of virus produced were calculated according to the Reed and Muench method and expressed as 50% tissue culture infective dose per mL (TCID50/mL).

[4] = tested on: HSV-2 (G); assay: HSV-2 replication in human ex vivo tonsillar (lymphoid) tissue, viral DNA; assay type: cell-based
Description: Figure 5 Suppression of HSV-2 in infected human ex vivo tonsillar tissue by adefovir and PMEO-DAPym. Blocks of human tonsillar tissue were inoculated ex vivo with HSV-2 (G) and treated or not with adefovir or PMEO-DAPym. We monitored HSV-2 (G) replication by measuring viral DNA in culture media at different times throughout the culture period. Presented are means ± SEM of cumulative HSV-2 (G) replication in tissues from two to six donors. For each donor, data represent pooled viral release from 27 tissue blocks.
Figure 7 Suppression of HSV-2 in single-infected and HIV-1 co-infected human ex vivo tonsillar tissue by adefovir and PMEO-DAPym. Panels A and B: Blocks of human tonsillar tissue from five different donors were co-inoculated ex vivo with HSV-2 (G) and HIV-1 (LAI) and treated or not with adefovir or PMEO-DAPym (1 µg/ml). For tissue from each donor, we monitored replication of both viruses by evaluating their accumulation in the culture media bathing 27 tissue blocks at different times throughout the culture. We evaluated HIV-1 replication by measuring p24gag and HSV-2 (G) replication by measuring HSV-2 viral DNA. Panel A: Presented are kinetics of HSV-2 (G) and HIV-1 (LAI) replication (insert). Each point represents the mean ± SEM of viral replication in tissues from five donors. Panel B: Presented are means ± SEM of cumulative HSV-2 (G) and HIV-1 (LAI) replication (insert).
Human tonsillar tissues were obtained from patients undergoing routine tonsillectomy at the Children's National Medical Center (Washington, DC) under IRB-approved protocol. Cervical tissues were obtained through the National Disease Research Interchange (NDRI, Philadelphia, PA). Tissues were dissected into blocks of about 2×2×2 mm and placed onto collagen sponge gels in culture medium at the air-liquid interface as described earlier. For tonsillar tissue for each experimental condition, 27 tissue blocks (9 blocks/well filled with 3 ml of medium) were inoculated with HSV-1 (strain F) or HSV-2 (strains G and MS). In coinfection experiments, tissue blocks were sequentially infected with HSV-2 (G) and HIV-1 (IIIB) (obtained from the Rush University Virology Quality Assurance Laboratory, Chicago, IL). Drugs (adefovir and PMEO-DAPym) were added to the culture medium 12 h prior to viral infection and replenished at each culture medium change.
For cervico-vaginal tissue, 16 blocks were infected by immersion in HSV-2G-containing medium and maintained on the gelfoam rafts. Adefovir was added at the time of infection and replenished at each culture medium change. HSV replication was evaluated from the release of viral DNA into the culture medium as measured with quantitative real-time PCR [18]. We evaluated HIV-1 replication from the release of p24 capsid antigen using a bead-based assay.

[5] = tested on: HSV-1 (KOS strain); assay: Pre-treatment of PHK cell cultures, HSV-1 infection (CPE)
Experimental: (§2) The HSV-induced cytopathic effect (CPE) was evaluated in HSV-infected HEL and PHK cultures as described [44], [48].

[6] = tested on: HSV-2 (G strain); assay: Pre-treatment of PHK cell cultures, HSV-2 infection (CPE)
Experimental: as §2

- EC50 [1]: > 100 µg/mL
- EC50 [2]: > 100 µg/mL
- EC50 ([3]; Human alphaherpesvirus 2, HSV-2 (G), human monocyte/macrophages): 0.13 ± 0.015 µg/mL (≈ 0.577 µM)
- EC50 ([5]; Human alphaherpesvirus 1, read-out: 50% effective concentration, PHK, HSV-1 KOS, +2 h to 72 h (control, drug present whole incubation)): 0.33 ± 0.25 µg/mL (≈ 1.47 µM)
- EC50 ([5]; Human alphaherpesvirus 1, read-out: 50% effective concentration, PHK, HSV-1 KOS, pretreatment −2.5 h to 0 h): > 50 µg/mL
- EC50 ([5]; Human alphaherpesvirus 1, read-out: 50% effective concentration, PHK, HSV-1 KOS, pretreatment −6 h to 0 h): > 50 µg/mL
- EC50 ([5]; Human alphaherpesvirus 1, read-out: 50% effective concentration, PHK, HSV-1 KOS, pretreatment −18 h to 0 h): > 50 µg/mL
- EC50 ([6]; Human alphaherpesvirus 2, read-out: 50% effective concentration, PHK, HSV-2 G, +2 h to 72 h (control, drug present whole incubation)): 0.41 ± 0.13 µg/mL (≈ 1.82 µM)
- EC50 ([6]; Human alphaherpesvirus 2, read-out: 50% effective concentration, PHK, HSV-2 G, pretreatment −2.5 h to 0 h): 50 µg/mL (≈ 222 µM)
- EC50 ([6]; Human alphaherpesvirus 2, read-out: 50% effective concentration, PHK, HSV-2 G, pretreatment −6 h to 0 h): > 50 µg/mL
- EC50 ([6]; Human alphaherpesvirus 2, read-out: 50% effective concentration, PHK, HSV-2 G, pretreatment −18 h to 0 h): > 50 µg/mL
SMILES: Nc1nc2c(ncn2COCCO)c(=O)[nH]1 [Acyclovir, 9-(2-hydroxyethyloxymethyl)guanine]
- Cytopathicity (CPE) on macrophages 6 days after infection % CPE ([3]; 0.000025 µg/ml): 75%
- Virus production by HSV2-infected macrophages 6 days after infection (CPE reduction) ([3]; 0.000025 µg/ml): 1.3×10^4 TCID50/ml
- Cytopathicity (CPE) on macrophages 6 days after infection % CPE ([3]; 0.000128 µg/ml): 40%
- Virus production by HSV2-infected macrophages 6 days after infection (CPE reduction) ([3]; 0.000128 µg/ml): 7.2×10^3 TCID50/ml
- Cytopathicity (CPE) on macrophages 6 days after infection % CPE ([3]; 0.00064 µg/ml): 10%
- Virus production by HSV2-infected macrophages 6 days after infection (CPE reduction) ([3]; 0.00064 µg/ml): 3.5×10^2 TCID50/ml
- Virus production by HSV2-infected macrophages 6 days after infection (CPE reduction) ([3]; 0.003 µg/ml): No virus
- Virus production by HSV2-infected macrophages 6 days after infection (CPE reduction) ([3]; 0.016 µg/ml): No virus
- Virus production by HSV2-infected macrophages 6 days after infection (CPE reduction) ([3]; 0.08 µg/ml): No virus
- inhibition at 25 pg/mL ([3]; Human alphaherpesvirus 2, 144 h, 0.000025 µg/ml, M/M, day 6, read-out: Inhibition of viral replication (% to control)): 7.2%
- inhibition at 0.000128 µg/mL ([3]; Human alphaherpesvirus 2, 144 h, 0.000128 µg/ml, M/M, day 6, read-out: Inhibition of viral replication (% to control)): 49%
- inhibition at 0.00064 µg/mL ([3]; Human alphaherpesvirus 2, 144 h, 0.00064 µg/ml, M/M, day 6, read-out: Inhibition of viral replication (% to control)): 97%
- inhibition at 0.003 µg/mL ([3]; Human alphaherpesvirus 2, 144 h, 0.003 µg/ml, M/M, day 6, read-out: Inhibition of viral replication (% to control)): 100%
- inhibition at 0.016 µg/mL ([3]; Human alphaherpesvirus 2, 144 h, 0.016 µg/ml, M/M, day 6, read-out: Inhibition of viral replication (% to control)): 100%
- inhibition at 0.08 µg/mL ([3]; Human alphaherpesvirus 2, 144 h, 0.08 µg/ml, M/M, day 6, read-out: Inhibition of viral replication (% to control)): 100%
- inhibition at 0.3 µg/mL ([4]; Human alphaherpesvirus 2, human lymphoid tissue ex vivo, 0.3 µg/mL, read-out: Inhibition of viral replication (% to control)): 99.9%
- inhibition at 3 µg/mL ([4]; Human alphaherpesvirus 2, human lymphoid tissue ex vivo, 3 µg/mL, read-out: Inhibition of viral replication (% to control)): > 99%
- HSV-2 DNA copies ([4]; human lymphoid tissue ex vivo, 0.3 µg/mL): 1.69 e+5 copies
- HSV-2 DNA copies ([4]; human lymphoid tissue ex vivo, 3 µg/mL): 2.83 e+4 copies
- Inhibition of viral replication (% to control) ([4]; human lymphoid tissue ex vivo, 3 µg/mL, listed as ACV): 99.98%
